Consider 19 compounds from PubChem BioAssay AID330 (DTP/NCI, 2004).

“And” between values parts separate entries of the source, which are not always exact repeats. Identical values can stand only once. Toxic doses and inconclusive results are not listed.

This assay has as its system P388 leukemia ip, CD2F1 mice, survival T/C. The experiment in a line: NCI In Vivo Anticancer Drug Screen. Data for tumor model P388 Leukemia (intraperitoneal) in CD2F1 (CDF1) mice. Particulars: endpoint: median survival time, higher = longer survival. The essentials: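 Mice carrying the transplanted tumor received test compound or vehicle. Survival was recorded in each group, and the value is the treated-group measurement divided by that of the vehicle-treated control group.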

Where [1] appears, read: dose: 50.0 mg/kg/injection, schedule: Q01DX009 (ip), vehicle: saline.
[2] abbreviates: dose: 100.0 mg/kg/injection, schedule: Q01DX009 (ip), vehicle: saline.
[3] abbreviates: dose: 50.0 mg/kg/injection, schedule: Q01DX005 (ip), vehicle: Klucel (hydroxypropylcellulose) (HPC).
The mark [4] stands for this setting: dose: 100.0 mg/kg/injection, schedule: Q01DX005 (ip), vehicle: Klucel (hydroxypropylcellulose) (HPC).
The mark [5] stands for this setting: dose: 200.0 mg/kg/injection, schedule: Q01DX005 (ip), vehicle: Klucel (hydroxypropylcellulose) (HPC).
Setting [6] is: dose: 50.0 mg/kg/injection, schedule: Q01DX005 (ip), vehicle: saline with Tween-80.
Where [7] appears, read: dose: 100.0 mg/kg/injection, schedule: Q01DX005 (ip), vehicle: saline with Tween-80.
Where [8] appears, read: dose: 200.0 mg/kg/injection, schedule: Q01DX005 (ip), vehicle: saline with Tween-80.

Regarding `COc1cccc2c1C(=O)c1c(O)c3c(c(O)c1C2=O)C[C@@](O)(/C(CO)=N/NC(=O)c1ccccc1)C[C@@H]3OC1CC(N)C(O)C(C)O1` (stereo partly drawn), the T/C is 103 % of control (dose: 0.12 mg/kg/injection, schedule: Q01DX009 (ip), vehicle: water); 99 % of control (dose: 0.25 mg/kg/injection, schedule: Q01DX009 (ip), vehicle: water); 150 % of control (dose: 0.5 mg/kg/injection, schedule: Q01DX009 (ip), vehicle: water); 112 % of control (dose: 0.8 mg/kg/injection, schedule: Q01DX009 (ip), vehicle: saline); 154 % of control and 169 % of control (dose: 1.0 mg/kg/injection, schedule: Q01DX009 (ip), vehicle: water); 112 % of control (dose: 1.4 mg/kg/injection, schedule: Q01DX009 (ip), vehicle: saline). The T/C was 154 % of control and 171 % of control and 190 % of control (dose: 2.0 mg/kg/injection, schedule: Q01DX009 (ip), vehicle: water); 113 % of control (dose: 2.3 mg/kg/injection, schedule: Q01DX009 (ip), vehicle: saline); 118 % of control (dose: 3.9 mg/kg/injection, schedule: Q01DX009 (ip), vehicle: saline); 172 % of control and 180 % of control and 212 % of control (dose: 4.0 mg/kg/injection, schedule: Q01DX009 (ip), vehicle: water); 96 % of control (dose: 6.0 mg/kg/injection, schedule: Q04DX003 (ip), vehicle: water); 201 % of control and 230 % of control and 390 % of control (dose: 8.0 mg/kg/injection, schedule: Q01DX009 (ip), vehicle: water). For the same compound, the T/C is, setting by setting: (dose: 8.6 mg/kg/injection, schedule: Q01DX009 (ip), vehicle: saline) 163 % of control; (dose: 10.8 mg/kg/injection, schedule: Q01DX009 (ip), vehicle: saline) 187 % of control; (dose: 18.0 mg/kg/injection, schedule: Q01DX009 (ip), vehicle: saline) 90 % of control; (dose: 96.0 mg/kg/injection, schedule: Q04DX003 (ip), vehicle: water) 114 % of control.

As to `OC(/C=C/c1ccccc1)Cc1nc2ccccc2[nH]1` (stereo not drawn), the T/C was 98 % of control (dose: 60.0 mg/kg/injection, schedule: Q01DX005 (ip), vehicle: saline with Tween-80) and 88 % of control (dose: 120.0 mg/kg/injection, schedule: Q01DX005 (ip), vehicle: saline with Tween-80).

Consider `c1cc2cc(c1)CSCCCSCc1cccc(c1)CSCCCSC2`, for which the T/C is, setting by setting: (dose: 50.0 mg/kg/injection, schedule: Q04DX002 (ip), vehicle: saline) 103 % of control; (dose: 100.0 mg/kg/injection, schedule: Q04DX002 (ip), vehicle: saline) 105 % of control; (dose: 200.0 mg/kg/injection, schedule: Q04DX002 (ip), vehicle: saline) 100 % of control.

On to `COc1cc(C2=N/C(=C\c3ccccc3O)C(=O)O2)cc(OC)c1OC`, for which the T/C (dose: 25.0 mg/kg/injection, schedule: Q01DX009 (ip), vehicle: saline) was 94 % of control; the T/C under setting [1] is 94 % of control; the T/C under setting [2] was 91 % of control.

Take `O=C1NNC(c2ccccc2)=Nc2[nH]ncc21`: the T/C was 96 % of control (dose: 100.0 mg/kg/injection, schedule: Q04DX002 (ip), vehicle: saline with Tween-80); 93 % of control (dose: 200.0 mg/kg/injection, schedule: Q04DX002 (ip), vehicle: saline with Tween-80); 93 % of control (dose: 400.0 mg/kg/injection, schedule: Q04DX002 (ip), vehicle: saline with Tween-80).

As for `CCOc1cc2c(cc1C(CC)c1ccc(OC)cc1)OCO2` (stereo not drawn), the T/C is 104 % of control under setting [3], 104 % of control under setting [4] and 99 % of control under setting [5].

As for `CCOC(=O)c1ncc(OCC)o1`, the T/C runs as follows: under setting [1], 91 % of control; under setting [2], 89 % of control; (dose: 200.0 mg/kg/injection, schedule: Q01DX009 (ip), vehicle: saline) 95 % of control.

For `[SeH]c1ccccc1`, the T/C was 106 % of control (dose: 7.5 mg/kg/injection, schedule: Q01DX009 (ip), vehicle: saline with Tween-80); 113 % of control (dose: 15.0 mg/kg/injection, schedule: Q01DX009 (ip), vehicle: saline with Tween-80); 116 % of control (dose: 30.0 mg/kg/injection, schedule: Q01DX009 (ip), vehicle: saline with Tween-80).

For `NC(=O)N/N=C/Cn1ccc(=O)n(C/C=N/NC(N)=O)c1=O`, the T/C reads like this: under setting [3], 91 % of control; under setting [4], 87 % of control; under setting [5], 87 % of control.

As for `COC(=O)C12CCCC1(C(=O)OC)N2N1C(=O)c2ccccc2C1=O` (stereo not drawn), the T/C is 100 % of control under setting [3], 100 % of control under setting [4] and 105 % of control under setting [5].

On to `COc1cc(Cc2cnc(N)nc2N)cc(OC)c1OC`, for which the T/C is 100 % of control under setting [6]; 99 % of control under setting [7]; 100 % of control under setting [8]; 100 % of control (dose: 400.0 mg/kg/injection, schedule: Q01DX005 (ip), vehicle: saline with Tween-80).

Turning to `CC(C)(N)P(=O)(O)O`, the T/C was 96 % of control (dose: 25.0 mg/kg/injection, schedule: Q01DX009 (ip), vehicle: suspension in saline); 92 % of control (dose: 50.0 mg/kg/injection, schedule: Q01DX009 (ip), vehicle: suspension in saline); 100 % of control (dose: 100.0 mg/kg/injection, schedule: Q01DX009 (ip), vehicle: suspension in saline); 106 % of control (dose: 200.0 mg/kg/injection, schedule: Q01DX009 (ip), vehicle: suspension in saline).

Take `O=[N+]([O-])O.O=[N+]([O-])O.[NH-]C1CCCC1[NH-].[Pt+2]` (stereo not drawn): the T/C (dose: 6.25 mg/kg/injection, schedule: Q04DX002 (ip), vehicle: saline) is 180 % of control; the T/C (dose: 12.5 mg/kg/injection, schedule: Q04DX002 (ip), vehicle: saline) was 180 % of control; the T/C (dose: 12.5 mg/kg/injection, schedule: Q04DX002 (ip), vehicle: suspension in saline) was 184 % of control; the T/C (dose: 25.0 mg/kg/injection, schedule: Q04DX002 (ip), vehicle: saline) is 197 % of control; the T/C (dose: 25.0 mg/kg/injection, schedule: Q04DX002 (ip), vehicle: suspension in saline) was 202 % of control.

Take `COc1cc2c(OC)cc1CCCC(=O)CCCc1cc(OC)c(cc1OC)CCCC(=O)CCC2`: the T/C was 100 % of control under setting [6], 98 % of control under setting [7] and 92 % of control under setting [8].

`Cc1ccc(N=C2N=C(Nc3ccc(C)cn3)c3ccccc32)nc1`: the T/C runs as follows: (dose: 50.0 mg/kg/injection, schedule: Q01DX009 (ip), vehicle: saline with Tween-80) 92 % of control; (dose: 100.0 mg/kg/injection, schedule: Q01DX009 (ip), vehicle: saline with Tween-80) 91 % of control; (dose: 200.0 mg/kg/injection, schedule: Q01DX009 (ip), vehicle: saline with Tween-80) 96 % of control.

In the case of `Cc1ccn(C(=O)C2=Cc3ccccc3OC2)c(=N)c1`, the T/C by setting is: (dose: 100.0 mg/kg/injection, schedule: Q04DX003 (ip), vehicle: Klucel (hydroxypropylcellulose) (HPC)) 106 % of control; (dose: 200.0 mg/kg/injection, schedule: Q04DX003 (ip), vehicle: Klucel (hydroxypropylcellulose) (HPC)) 103 % of control; (dose: 400.0 mg/kg/injection, schedule: Q04DX003 (ip), vehicle: Klucel (hydroxypropylcellulose) (HPC)) 100 % of control.

`CCCOC(CN(C)C)C(Cl)(Cl)Cl` (stereo not drawn): the T/C is 101 % of control (dose: 50.0 mg/kg/injection, schedule: Q01DX009 (ip), vehicle: Klucel (hydroxypropylcellulose) (HPC)); 104 % of control (dose: 100.0 mg/kg/injection, schedule: Q01DX009 (ip), vehicle: Klucel (hydroxypropylcellulose) (HPC)); 100 % of control (dose: 200.0 mg/kg/injection, schedule: Q01DX009 (ip), vehicle: Klucel (hydroxypropylcellulose) (HPC)).

As to `CN(C)P(=S)(N(C)C)N1CCOCC1`, the T/C (dose: 50.0 mg/kg/injection, schedule: Q04DX003 (ip), vehicle: saline with Tween-80) was 104 % of control; the T/C (dose: 100.0 mg/kg/injection, schedule: Q04DX003 (ip), vehicle: saline with Tween-80) was 88 % of control; the T/C (dose: 200.0 mg/kg/injection, schedule: Q04DX003 (ip), vehicle: saline with Tween-80) is 96 % of control.

For the compound `O=c1c2ccccc2nc(CN(CCCl)CCCl)n1-c1ccc(O)c(CN(CCCl)CCCl)c1`, the T/C runs as follows: (dose: 100.0 mg/kg/injection, schedule: Q01DX001 (ip), vehicle: saline with Tween-80) 151 % of control; (dose: 200.0 mg/kg/injection, schedule: Q01DX001 (ip), vehicle: saline with Tween-80) 155 % of control; (dose: 400.0 mg/kg/injection, schedule: Q01DX001 (ip), vehicle: saline with Tween-80) 270 % of control.
